# Literature values in patent US20250000872A1, “FORMULATIONS AND DOSING REGIMENS FOR RIP1 KINASE INHIBITORS FOR TREATING AUTOIMMUNE AND INFLAMMATORY DISEASES” (Eli Lilly and Company, priority 2023, published 2025).
# Legend:
# [1] = tested on: patients with moderate to severe RA; conditions: 60 mg orally b.i.d. and t.i.d. for up to 84 days; cited from earlier work
# [2] = modified release formulations, fasted state; not maintained with standard or high-fat meal; cited from earlier work
# [3] = tested on: patients with mild-to-moderate active plaque-type psoriasis; conditions: 60 mg orally b.i.d. and 60 mg orally t.i.d.; cited from earlier work
# UC = conditions: 60 mg orally t.i.d. for up to 84 days; cited from earlier work
smiles,measurement,setting,value
"CN1C(=O)[C@@H](NC(=O)c2nnc(Cc3ccccc3)[nH]2)COc2ccccc21 [GSK2982772, 5-Benzyl-N-[(3S)-5-methyl-4-oxo-2,3-dihydro-1,5-benzoxazepin-3-yl]-1H-1,2,4-triazole-3-carboxamide]","difference over placebo in disease activity, radiological progression, or inflammatory markers",[1],No significant difference
same,GSK2982772 released over 12 h,[2],80%
same,clinical improvement over placebo,[3],limited
same,histological disease activity or clinical efficacy compared with placebo,UC,does not lead to differences
